How the values were obtained:
Format in all cases: cell-based, human
MG-63 cells [1] = assay: Apoptosis by DAPI staining and counting of apoptotic cells; details: for Increase in apoptosis compared to untreated cells: N-SMase-deficient (ribozyme) cells treated with C2 ceramide; for Increase in apoptosis assessed by DAPI staining: sham-transfected cells
Method: FIG. 6 depicts a quantitative analysis of the effects of TNF-α, C2-Ceramide and Fas-ligand on apoptosis in mutant (CC) and WT (MG-63) cells, as well as wild type/mock transfected cells. Cells were grown on glass cover slips and incubated for 24 hours with TNF-α (20 ng/ml), cell-permeable ceramide (C2-Ceramide) (10 ng/ml) or Fas-L (1 ng/ml). Cells were fixed and stained with DAPI and photographed at 50× magnification. Apoptotic cells were counted using a hemocytometer. The basal levels of apoptotic cells were: MG-63 (3%); L-3 (3%); and CC (2.8%). Errors bars indicate ±S.D. (N=2).
WT (MG-63), LacZ (L-3) and mutant (CC) cells were grown on glass cover slips and incubated for 24 hr with TNF-α (20 ng/ml), cell-permeable ceramide (C2-ceramide) (10 ng/ml) or Fas-L (1 ng/ml). Cells were fixed and stained with DAPI stain and photographed (50×). Apoptotic cells were counted using a hemocytometer and compared to total cell counts per field. Basal levels of apoptosis were 3% untransfected, 3% control transfection, and 2.8% ribozyme transfection.

N-SMase = assay: TNF-α and Fas ligand induced N-SMase activity in WT and mutant cells; details: for N-SMase activity under cytokine stimulation: sham-transfected cells stimulated with TNF-α and Fas-L, basal 2.7
Method: FIGS. 4A–4B depict the effects of incubation with TNF-α (FIG. 4A) and Fas ligand (FIG. 4B) over time on the activity of N-SMase in mutant and WT cells. Confluent cultures of WT (MG-63) and mutant (CC) cells were incubated with serum free medium with or without TNF-α ([…]) or Fas ligand (1 ng/ml). At the indicated intervals, cells were harvested, centrifuged, and lysed in buffer containing 0.1% Triton™ X-100, 25 mM Tris (pH 7.4), 5 mM EDTA, 1 mM phenylmethylsulfonyl fluoride (PMSF), and 2 μg each of chymostatin, leupeptin, antipain, and pepstatin A. 100 μl of a reaction mixture containing 50 mM Tris (pH 7.4), 5 mM MgCl2, 0.05% Triton™ X-100, 5 mM dithiothreitol (DTT) and 10 nmol [^14C] sphingomyelin (100,000 cpm) was added to 5–10 μl of cell lysate (100 μg protein). The basal activity of N-SMase was 2.7±0.1 nmol/mg protein/hr in MG63 cells and 0.67±0.1 nmol/mg protein/hr in CC cells. These levels were defined as 100% activity. Error bars indicate ±S.D. (N=3).
Tumor necrosis factor alpha (TNF-α) is known to induce programmed cell death through stimulation of sphingomyelinase activity and generation of ceramide. This example describes the ability of the ribozyme directed against N-SMase to inhibit this pathway. The effects of incubation with TNF-α and Fas ligand over time on the activity of N-SMase in mutant and WT cells are shown in FIGS. 4A and 4B, respectively. Confluent cultures of WT (MG-63) and mutant (CC) cells were incubated with serum free medium with or without TNF-α ([…]) or Fas ligand (1 ng/ml), and the activity of N-SMase was determined by measuring the cleavage of [^14C]sphingomyelin. At 0, 10, 20, 30, 40, 50, and 60 minutes, cells were harvested, centrifuged, and lysed in buffer containing 0.1% Triton™ X-100, 25 mM Tris (pH 7.4), 5 mM EDTA, 1 mM phenylmethylsulfonyl fluoride (PMSF), and 2 μg each of chymostatin, leupeptin, antipain, and pepstatin A. 100 μl of a reaction mixture containing 50 mM Tris (pH 7.4), 5 mM MgCl2, 0.05% Triton™ X-100, 5 mM dithiothreitol (DTT) and 10 nmol [^14C]sphingomyelin (100,000 cpm) was added to 5–10 μl of cell lysate (100 μg protein). The basal activity of N-SMase was 2.7±0.1 nmol/mg protein/hr in MG63 cells and 0.67±0.1 nmol/mg protein/hr in CC cells. These levels were defined as 100% activity.

[2] = test system: caspase-3 and cytochrome-C release; assay: Caspase-3 and cytochrome-C release by western analysis and densitometry; details: control (sham-transfected) cells
Method: In order to determine a dose-response relationship between the concentration of TNF-α or FasL and apoptosis, western analysis was used to quantitate release of both caspase-3 (FIG. 9) and cytochrome-C (FIG. 10).
Immunoblots for the measurement of cytochrome-C and caspase-3 were carried out after incubation of cells with TNF-α (10 ng/ml) or FasL (1 ng/ml) for 48 hours. Cells were extracted with a buffer (20 mM Hepes pH 7.5, 10 mM KCl, 1.5 mM MgCl2, 5 mM EDTA, 5 mM DTT, 2 mM phenylmethylsulfonylfluoride, 1% NonidetP40, 0.5% sodium deoxycholate, 0.1% SDS, 2 μg/ml leupeptin, 2 μg/ml aprotinin, 0.5 μg/ml benzamindine, and 250 mM sucrose) on ice for 30 minutes. After centrifugation for 10 minutes at 10,000×g, the supernatant was used for western analysis with an antibody for cytochrome-C (Pharmingen, San Diego, Calif.). For assessment of caspase-3, samples were similarly processed in addition to passage through a 21-g needle prior to centrifugation. The western analysis was performed with a rabbit polyclonal IgG antibody to caspase-3 (Santa Cruz, Calif.) raises against an epitope corresponding to amino acids 1–277, representing the full-length precursor form of CPP-32 (caspase-3). For both caspase-3 and cytochrome-C, bands were quantified with densitometric analysis.

[3] = test system: ceramide production by N-SMase; assay: Ceramide level, modified diacylglycerol kinase assay; details: sham-transfected cells stimulated with TNF-α and Fas-L
MG-63 cells [4] = assay: Cell viability by trypan blue staining; details: control cells, TNF-α in various concentrations, 24 hours
Method: FIG. 8 depicts the effect of TNF-α on viability of wild type, ribozyme transfected and wild type/mock transfected cells. Cells ([…]) were seeded in 96 well sterile plastic trays. Upon confluence medium was replaced with serum free minimum essential medium and TNF-α (20 ng/ml). After incubation for 24 h at 37° C., viability of cells were determined by Trypan blue staining. The results represent ±S.D. of three experiments.
The population of viable cells was determined using trypan blue staining. Cells (10^4) were seeded in 96 well plates. Twenty-four hours later, the media was replaced with serum-free MEM, and TNF-α in various concentrations was added. After incubation for 24 hours at 37° C., the cells were trypsinized, and viable cells were counted after staining with trypan blue. Values were compared to the original cell count (10^4) and expressed as a percentage.

Increase in ceramide production [3]	Molecule	Increase in apoptosis compared to untreated cells (MG-63 cells [1])	Increase in apoptosis compared to untreated cells (MG-63 cells [1]; listed as C2-ceramide)	N-SMase activity under cytokine stimulation (N-SMase) [nmol/mg protein/hr]	Dose-response of caspase-3 and cytochrome-C release [2]	Increase in apoptosis assessed by DAPI staining (MG-63 cells [1])	Peak N-SMase activity relative to unstimulated cells (N-SMase; control transfected clones, 10 minutes after addition of TNF-α) [%]	DAPI staining (MG-63 cells [1]; control-transfected cells, TNF-α 20 ng/ml for 24 hours, compared to untransfected cells) [%]	Decline in population of viable cells (MG-63 cells [4])
	CCCCCCCCCCCCC/C=C/[C@@H](O)[C@H](CO)NC(C)=O [C2 ceramide]	about 2.5 fold	greater than two-fold increase						
about 2 fold	Fas ligand: ligand for Fas/Apo-1 (CD95), used as apoptosis agonist [reference compound]			4.0	linear dose-response relationship	about 4 fold			
about 2 fold	Tumor necrosis factor alpha [TNF-α, reference compound]			4.0	linear dose-response relationship	about 4 fold	140	490	prompt decline

Source: US7230094B2, “Neutral sphingomyelinase antisense ribozyme and uses thereof” (priority 2001, dated 2007)
